From ChEMBL document CHEMBL1136937, “Discovery of a potent class I selective ketone histone deacetylase inhibitor with antitumor activity in vivo and optimized pharmacokinetic properties” (J Med Chem, 2009)
In brackets after ≈: the same amount, converted by molar mass. Values belong to the compound of their own block, whether it stands above or below them. Activity calls are given as the source filed them. No cut-off for these calls is given here.

Experiments:
[1] = Metabolic stability in rat liver microsomes assessed as intrinsic clearance at 1 uM after 90 mins; format: ADME, Microsome
[2] = (§1) Metabolic stability in human liver microsomes assessed as intrinsic clearance at 1 uM after 90 mins; format: ADME, Microsome; details: liver microsomes
Histone deacetylase 1 = Histone deacetylase 1 (Homo sapiens, UniProt Q13547)
Description: Inhibition of human C-terminal FLAG-tagged HDAC1 in HEK293 cells

HeLa = assay: Antiproliferative activity against human P53-deficient HeLa cells after 72 hrs by celltiter-blue cell viability assay; format: functional
[3] = Metabolic stability in dog liver microsomes assessed as intrinsic clearance at 1 uM after 90 mins; format: ADME, Canis lupus familiaris, Microsome; details: for microsomal CLint at 1 µM: liver microsomes
[4] = Clearance in Sprague-Dawley rat plasma at 3 mg/kg, iv and 3 mg/kg, po; format: ADME, organism-based
Liver microsomes = assay: as §1; format: ADME, Microsome; details: microsomes, 1.5 h, 1 µM
A2780 = assay: Antiproliferative activity against human A2780 cells after 72 hrs by celltiter-blue cell viability assay; format: functional; details: A2780, 72 h
Mus musculus [5] = assay: Toxicity in BALB/c nu/nu mouse assessed as adverse effect at 10 mg/kg, ip administered once daily for 5 days per week; format: organism-based; parameters: dose 10 mg/kg, route intraperitoneal; details: in vivo, 120 h
[6] = Clearance in Beagle dog at 1 mg/kg, iv and 2 mg/kg, po; format: ADME, organism-based, Canis lupus familiaris; details: in vivo
[7] = Volume of distribution at steady state in Sprague-Dawley rat at 3 mg/kg, iv and 3 mg/kg, po; format: ADME, organism-based; details: in vivo, read-out: Vdss
[8] = Terminal half life in Sprague-Dawley rat at 3 mg/kg, iv and 3 mg/kg, po; format: ADME, organism-based; details: in vivo, read-out: beta t1/2 (converted)
[9] = Plasma concentration in Beagle dog at 2 mg/kg, po after 24 hrs; format: ADME, organism-based, Canis lupus familiaris; parameters: dose 2 mg/kg, route oral
U-937 = assay: Antiproliferative activity against human U937 cells after 72 hrs by celltiter-blue cell viability assay; format: functional; details: U-937, 72 h
HCT-116 [10] = assay: Antiproliferative activity against human P53 expressing HCT116 cells after 72 hrs by celltiter-blue cell viability assay; format: functional; details: Homo sapiens, HCT-116, 72 h
G-401 = assay: Antiproliferative activity against human G401 cells after 72 hrs by celltiter-blue cell viability assay; format: functional; details: Homo sapiens, G-401, 72 h
[11] = Volume of distribution at steady state in Beagle dog at 1 mg/kg, iv and 2 mg/kg, po; format: ADME, organism-based, Canis lupus familiaris; details: in vivo, read-out: Vdss
Histone deacetylase 5 = Histone deacetylase 5 (Homo sapiens, UniProt Q9UQL6); assay: Inhibition of wild type His-tagged HDAC5 catalytic domain T678-L1122 expressed in Escherichia coli
MCF7 = assay: Antiproliferative activity against human MCF7 cells after 72 hrs by celltiter-blue cell viability assay; format: functional; details: Homo sapiens, MCF7, 72 h
[12] = Toxicity in ip dosed BALB/c nu/nu mouse assessed as maximum tolerated dose; format: organism-based; details: in vivo
Cytochrome P450 2C9 = Cytochrome P450 2C9 (Homo sapiens, UniProt P11712); assay: Inhibition of CYP2C9; format: ADME
HCT-116 [13] = assay: Antitumor activity against human HCT116 cells xenografted BALB/c nu/nu mouse assessed as reduction in tumor growth at 10 mg/kg, ip administered once daily for 5 days per week; format: functional, organism-based; parameters: dose 10 mg/kg
A549 = assay: Antiproliferative activity against human P53 expressing A549 cells after 72 hrs by celltiter-blue cell viability assay; format: functional; details: A549, 72 h
[14] = Plasma concentration in Sprague-Dawley rat at 3 mg/kg, po after 24 hrs; format: ADME, organism-based; parameters: dose 3 mg/kg, route oral
[15] = target: T1, Protein deacetylase HDAC6 (Homo sapiens, UniProt Q9UBN7)
T1 sequence (Q9UBN7 whole entry): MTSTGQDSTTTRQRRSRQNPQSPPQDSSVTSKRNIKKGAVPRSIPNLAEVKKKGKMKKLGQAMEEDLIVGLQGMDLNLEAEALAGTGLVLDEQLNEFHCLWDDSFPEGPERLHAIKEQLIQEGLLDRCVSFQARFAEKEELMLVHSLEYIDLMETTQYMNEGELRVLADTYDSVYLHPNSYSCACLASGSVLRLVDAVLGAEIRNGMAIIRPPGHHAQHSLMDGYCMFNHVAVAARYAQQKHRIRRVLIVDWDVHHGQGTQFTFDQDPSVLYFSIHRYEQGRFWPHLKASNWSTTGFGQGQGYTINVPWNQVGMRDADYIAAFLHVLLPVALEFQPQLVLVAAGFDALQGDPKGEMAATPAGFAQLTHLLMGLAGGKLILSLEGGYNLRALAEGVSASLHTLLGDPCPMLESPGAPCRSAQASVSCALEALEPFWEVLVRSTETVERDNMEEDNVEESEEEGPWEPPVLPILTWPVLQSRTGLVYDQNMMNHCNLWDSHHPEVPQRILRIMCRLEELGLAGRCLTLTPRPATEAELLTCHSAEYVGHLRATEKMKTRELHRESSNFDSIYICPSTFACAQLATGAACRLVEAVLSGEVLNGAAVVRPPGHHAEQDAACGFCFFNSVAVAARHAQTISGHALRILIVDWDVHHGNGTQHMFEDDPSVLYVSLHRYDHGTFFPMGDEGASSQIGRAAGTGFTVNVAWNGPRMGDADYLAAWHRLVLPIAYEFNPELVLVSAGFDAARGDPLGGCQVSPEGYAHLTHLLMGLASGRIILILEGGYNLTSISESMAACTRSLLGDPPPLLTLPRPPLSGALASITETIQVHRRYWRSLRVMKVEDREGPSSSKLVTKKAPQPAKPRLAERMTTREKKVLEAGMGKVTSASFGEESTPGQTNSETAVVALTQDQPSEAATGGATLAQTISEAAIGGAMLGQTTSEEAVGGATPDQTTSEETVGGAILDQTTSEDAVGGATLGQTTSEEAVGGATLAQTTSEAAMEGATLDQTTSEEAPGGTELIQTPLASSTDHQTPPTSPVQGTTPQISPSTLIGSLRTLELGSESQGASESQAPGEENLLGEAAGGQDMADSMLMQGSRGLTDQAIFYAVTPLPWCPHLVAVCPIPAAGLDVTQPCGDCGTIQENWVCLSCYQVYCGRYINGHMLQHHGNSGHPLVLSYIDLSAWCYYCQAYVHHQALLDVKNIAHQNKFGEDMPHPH
Description: Inhibition of C-terminal FLAG-tagged HDAC6 expressed in mammalian cells

Cytochrome P450 3A4 [16] = target: T2, Cytochrome P450 3A4 (Homo sapiens, UniProt P08684); assay: Induction of CYP3A4; format: ADME
[17] = Oral bioavailability in Beagle dog at 2 mg/kg; format: ADME, organism-based, Canis lupus familiaris; details: in vivo
Cytochrome P450 3A4 [18] = target: T2, Cytochrome P450 3A4; assay: Inhibition of CYP3A4; format: ADME
Mus musculus [19] = assay: Toxicity in BALB/c nu/nu mouse assessed as body weight loss at 10 mg/kg, ip administered once daily for 5 days per week; format: organism-based; parameters: dose 10 mg/kg, route intraperitoneal; details: in vivo, 120 h
HCT-116 [20] = assay: Antitumor activity against human HCT116 cells xenografted nude mouse assessed as reduction in tumor growth at […], ip administered once daily for 5 days per week; format: functional, organism-based
Histone deacetylase 7 = target: T3, Histone deacetylase 7 (Homo sapiens, UniProt Q8WUI4); assay: Inhibition of wild type His-tagged HDAC7 catalytic domain T515-L952 expressed in Escherichia coli
T3 sequence (Q8WUI4 whole entry): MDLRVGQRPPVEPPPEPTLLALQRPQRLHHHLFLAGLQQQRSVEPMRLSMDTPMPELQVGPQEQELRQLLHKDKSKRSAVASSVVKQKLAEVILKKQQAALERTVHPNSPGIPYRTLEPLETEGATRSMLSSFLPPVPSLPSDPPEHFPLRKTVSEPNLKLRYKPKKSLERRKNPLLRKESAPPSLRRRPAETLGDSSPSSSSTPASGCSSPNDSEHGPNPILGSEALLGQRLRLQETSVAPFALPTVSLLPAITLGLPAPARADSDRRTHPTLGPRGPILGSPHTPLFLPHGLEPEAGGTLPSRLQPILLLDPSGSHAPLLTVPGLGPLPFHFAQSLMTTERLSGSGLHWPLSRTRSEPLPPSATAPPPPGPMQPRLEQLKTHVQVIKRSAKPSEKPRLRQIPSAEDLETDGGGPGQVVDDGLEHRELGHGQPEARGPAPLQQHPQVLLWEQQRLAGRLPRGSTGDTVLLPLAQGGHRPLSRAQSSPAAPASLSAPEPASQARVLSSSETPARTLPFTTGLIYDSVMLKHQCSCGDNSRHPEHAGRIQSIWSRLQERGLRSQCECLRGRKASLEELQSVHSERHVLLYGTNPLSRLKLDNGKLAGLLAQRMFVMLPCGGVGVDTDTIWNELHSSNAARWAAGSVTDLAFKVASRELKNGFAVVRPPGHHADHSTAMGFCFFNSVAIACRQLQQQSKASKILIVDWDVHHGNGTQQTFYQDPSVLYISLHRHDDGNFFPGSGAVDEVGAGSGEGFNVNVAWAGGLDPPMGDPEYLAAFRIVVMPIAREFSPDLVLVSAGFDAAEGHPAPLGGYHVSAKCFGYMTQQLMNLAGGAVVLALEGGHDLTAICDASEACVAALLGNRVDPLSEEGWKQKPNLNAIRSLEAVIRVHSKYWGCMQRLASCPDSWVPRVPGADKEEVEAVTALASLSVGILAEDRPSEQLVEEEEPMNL

[21] = Solubility in buffered aqueous solution at pH 4.1; format: physicochemical
[22] = Oral bioavailability in Sprague-Dawley rat at 3 mg/kg; format: ADME, organism-based; details: in vivo
[23] = Terminal half life in Beagle dog at 1 mg/kg, iv and 2 mg/kg, po; format: ADME, organism-based, Canis lupus familiaris; details: in vivo, read-out: beta t1/2 (converted)

Sequence of Histone deacetylase 1 (Q13547 whole entry): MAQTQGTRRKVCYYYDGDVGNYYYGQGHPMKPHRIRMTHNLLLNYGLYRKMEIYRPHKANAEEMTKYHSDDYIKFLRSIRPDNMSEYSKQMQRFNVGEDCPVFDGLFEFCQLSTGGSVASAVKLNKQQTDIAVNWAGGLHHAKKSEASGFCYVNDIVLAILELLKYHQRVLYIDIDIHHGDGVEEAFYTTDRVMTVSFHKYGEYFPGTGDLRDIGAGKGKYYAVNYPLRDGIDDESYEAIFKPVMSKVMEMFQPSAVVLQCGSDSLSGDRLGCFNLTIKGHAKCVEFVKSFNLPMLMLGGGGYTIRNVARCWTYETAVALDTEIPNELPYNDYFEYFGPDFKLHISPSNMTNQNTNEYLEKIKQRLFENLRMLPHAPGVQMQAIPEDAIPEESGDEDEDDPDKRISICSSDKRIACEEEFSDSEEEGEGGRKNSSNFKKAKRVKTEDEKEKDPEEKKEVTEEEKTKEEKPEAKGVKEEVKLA
T2 sequence (P08684 whole entry): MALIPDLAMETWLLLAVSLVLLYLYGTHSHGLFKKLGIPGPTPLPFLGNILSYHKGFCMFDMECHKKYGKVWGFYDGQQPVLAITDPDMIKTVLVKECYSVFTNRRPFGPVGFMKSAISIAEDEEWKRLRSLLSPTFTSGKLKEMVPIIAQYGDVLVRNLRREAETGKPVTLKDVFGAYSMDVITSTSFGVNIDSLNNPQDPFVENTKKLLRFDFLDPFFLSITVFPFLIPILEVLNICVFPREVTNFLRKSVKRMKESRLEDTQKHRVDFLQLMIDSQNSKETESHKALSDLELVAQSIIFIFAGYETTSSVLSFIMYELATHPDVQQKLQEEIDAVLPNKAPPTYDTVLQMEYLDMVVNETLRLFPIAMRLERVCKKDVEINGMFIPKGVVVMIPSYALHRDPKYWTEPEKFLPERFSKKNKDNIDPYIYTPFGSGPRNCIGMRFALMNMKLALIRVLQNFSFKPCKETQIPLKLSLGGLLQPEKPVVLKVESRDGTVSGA
Sequence of Cytochrome P450 2C9 (P11712 whole entry): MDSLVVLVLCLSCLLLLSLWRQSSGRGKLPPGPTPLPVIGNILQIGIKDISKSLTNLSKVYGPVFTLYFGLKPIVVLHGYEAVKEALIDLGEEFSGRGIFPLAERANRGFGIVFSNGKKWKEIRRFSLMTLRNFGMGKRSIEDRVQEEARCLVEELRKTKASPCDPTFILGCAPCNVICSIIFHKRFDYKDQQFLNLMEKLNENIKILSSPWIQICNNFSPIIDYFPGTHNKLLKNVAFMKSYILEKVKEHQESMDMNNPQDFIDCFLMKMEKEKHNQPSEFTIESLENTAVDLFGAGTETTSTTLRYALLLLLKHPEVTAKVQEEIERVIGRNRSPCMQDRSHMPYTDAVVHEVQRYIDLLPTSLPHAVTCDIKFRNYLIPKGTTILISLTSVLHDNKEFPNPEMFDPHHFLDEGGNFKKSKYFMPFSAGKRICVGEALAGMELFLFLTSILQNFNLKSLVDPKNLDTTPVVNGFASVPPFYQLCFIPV
Sequence of Histone deacetylase 5 (Q9UQL6 whole entry, the tested form may be a part): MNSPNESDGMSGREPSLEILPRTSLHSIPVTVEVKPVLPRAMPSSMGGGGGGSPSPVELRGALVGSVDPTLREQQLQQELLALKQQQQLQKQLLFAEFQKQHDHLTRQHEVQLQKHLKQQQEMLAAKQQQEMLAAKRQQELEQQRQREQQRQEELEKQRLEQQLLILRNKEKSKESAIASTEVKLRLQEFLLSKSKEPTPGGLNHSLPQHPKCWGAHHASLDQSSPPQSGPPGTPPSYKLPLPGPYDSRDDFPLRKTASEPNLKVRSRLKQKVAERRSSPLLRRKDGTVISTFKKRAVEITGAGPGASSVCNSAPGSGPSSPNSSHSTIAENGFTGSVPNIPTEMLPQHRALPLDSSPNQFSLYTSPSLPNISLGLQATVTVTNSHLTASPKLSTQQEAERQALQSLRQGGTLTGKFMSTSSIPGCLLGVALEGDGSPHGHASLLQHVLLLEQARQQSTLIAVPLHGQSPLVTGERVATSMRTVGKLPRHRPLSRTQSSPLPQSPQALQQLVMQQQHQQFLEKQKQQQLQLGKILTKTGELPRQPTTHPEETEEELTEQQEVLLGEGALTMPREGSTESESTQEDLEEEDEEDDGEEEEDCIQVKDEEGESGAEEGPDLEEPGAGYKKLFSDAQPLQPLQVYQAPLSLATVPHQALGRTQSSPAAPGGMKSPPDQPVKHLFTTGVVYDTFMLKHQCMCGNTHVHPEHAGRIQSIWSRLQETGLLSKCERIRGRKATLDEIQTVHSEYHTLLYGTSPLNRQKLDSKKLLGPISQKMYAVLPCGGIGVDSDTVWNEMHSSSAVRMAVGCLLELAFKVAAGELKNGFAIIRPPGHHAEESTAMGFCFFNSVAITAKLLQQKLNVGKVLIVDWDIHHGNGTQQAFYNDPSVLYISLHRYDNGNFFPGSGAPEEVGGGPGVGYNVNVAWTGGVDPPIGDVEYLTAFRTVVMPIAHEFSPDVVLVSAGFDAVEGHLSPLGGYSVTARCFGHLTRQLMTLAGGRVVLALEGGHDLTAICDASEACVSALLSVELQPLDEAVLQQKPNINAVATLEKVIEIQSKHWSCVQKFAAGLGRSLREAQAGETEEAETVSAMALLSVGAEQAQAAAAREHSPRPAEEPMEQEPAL

Structure (SMILES): CCC(=O)CCCCC[C@H](NC(=O)CCN1CCN(C)CC1)c1ncc(-c2cc(OC)c3ccccc3n2)[nH]1
microsomal CLint at 1 µM [1]: 190 µL/min/mg
microsomal CLint at 1 µM [2]: 140 µL/min/mg
IC50 (Histone deacetylase 1): 17 nM
CC50 (HeLa): 390 nM
microsomal CLint at 1 µM [3]: 170 µL/min/mg

Structure (SMILES): CCC(=O)CCCCC[C@H](NC(=O)CCN(C)C)c1ncc(-c2cc(OC)c3ccccc3n2)[nH]1
microsomal CLint at 1 µM [1]: 38 µL/min/mg
clearance [4]: 59 mL/min/kg
microsomal CLint at 1 µM [2]: 15 µL/min/mg
IC50 (Histone deacetylase 1): 51 nM
CC50 (HeLa): 500 nM
microsomal CLint at 1 µM [3]: 6 µL/min/mg

Structure (SMILES): CCC(=O)CCCCC[C@H](NC(=O)C1CN(C)C1)c1ncc(-c2cc3ccccc3nc2F)[nH]1
microsomal CLint at 1 µM [1]: 34 µL/min/mg
microsomal CLint at 1 µM [2]: 18 µL/min/mg
IC50 (Histone deacetylase 1): 8 nM
CC50 (HeLa): 190 nM
microsomal CLint at 1 µM [3]: 28 µL/min/mg

Structure (SMILES): CCC(=O)CCCCC[C@H](NC(=O)C1CN(C)C1)c1ncc(-c2cc3ccccc3nc2OC)[nH]1
CC50 (A2780): 740 nM
Activity (Mus musculus [5]): Non-toxic
clearance [6]: 4 mL/min/kg
Vd [7]: 7.9 L/kg
half-life [8]: 7 h
concentration at 24 h [9]: > 100 nM
CC50 (U-937): 240 nM
CC50 (HCT-116 [10]): 220 nM
CC50 (G-401): 370 nM
Vd [11]: 3.5 L/kg
microsomal CLint at 1 µM [1]: 29 µL/min/mg
IC50 (Histone deacetylase 5): > 10000 nM
CC50 (MCF7): 750 nM
clearance [4]: 19 mL/min/kg
MTD [12]: 10 mg/kg
microsomal CLint at 1 µM [2]: 31 µL/min/mg
IC50 (Cytochrome P450 2C9): 5500 nM
Activity (HCT-116 [13]): Active
CC50 (A549): 490 nM
concentration at 24 h [14]: > 100 nM
IC50 [15]: 680000 nM
Activity (Cytochrome P450 3A4 [16]): Not Active
bioavailability [17]: 31%
CC50 (HeLa): 135 nM
Activity (Cytochrome P450 3A4 [18]): Not Active
Activity (Mus musculus [19]): Non-toxic
Activity (HCT-116 [20]): Active
IC50 (Histone deacetylase 7): > 10000 nM
microsomal CLint at 1 µM [3]: 29 µL/min/mg
solubility [21]: 13 mg/mL (≈ 27.2 mM)
bioavailability [22]: 73%
half-life [23]: 14 h

Structure (SMILES): Nc1ccccc1NC(=O)c1ccc(CNC(=O)OCc2cccnc2)cc1 [ENTINOSTAT]
CC50 (A2780): 3000 nM
CC50 (HCT-116 [10]): 700 nM
CC50 (G-401): 1300 nM
CC50 (A549): 1200 nM
CC50 (HeLa): 1800 nM

The next lines start with results.

microsomal CLint at 1 µM [1]: 210 µL/min/mg
microsomal CLint at 1 µM [2]: 29 µL/min/mg
IC50 (Histone deacetylase 1): 8 nM
microsomal CLint at 1 µM [3]: 18 µL/min/mg
Structure (SMILES): CCC(=O)CCCCC[C@H](NC(=O)C1CCN(C)CC1)c1ncc(-c2cc3ccccc3cn2)[nH]1
CC50 (HeLa): 22 nM

microsomal CLint at 1 µM [1]: 110 µL/min/mg
clearance [4]: 155 mL/min/kg
microsomal CLint at 1 µM [2]: 12 µL/min/mg
IC50 (Histone deacetylase 1): 22 nM
microsomal CLint at 1 µM [3]: 9 µL/min/mg
Structure (SMILES): CCC(=O)CCCCC[C@H](NC(=O)C1CCN(C)CC1)c1ncc(-c2ccc3ccccc3n2)[nH]1
CC50 (HeLa): 480 nM

CL (Liver microsomes): 194 µL/min/mg
CL ([3]; microsomes, 1.5 h, 1 µM): 194 µL/min/mg
Structure (SMILES): CC(=O)CCCCC[C@H](NC(=O)C1CCN(C)CC1)c1ncc(-c2ccc3ccccc3c2)[nH]1
CC50 (HeLa): 300 nM
